Earlier results in PubChem BioAssay AID1259409 (Chemical Carcinogenesis Research Information System (CCRIS), 2018).

Tested on: rodent chemically induced tumor inhibition, incidence and multiplicity
Assay: CCRIS tumor inhibitor studies
Conditions: Dose [Inhibitor]: 0, Route [Inhibitor]: ORAL, Species: RAT
Source text: The CCRIS database contains chemical records with carcinogenicity, mutagenicity, tumor promotion, and tumor inhibition test results. It was developed by the National Cancer Institute (NCI). Data are derived from studies cited in primary journals, current awareness tools, NCI reports, and other sources. Test results have been reviewed by experts in carcinogenesis and mutagenesis.
CCRIS provides historical information from the years 1985 - 2011. It is no longer updated.
This is an archive assay for CCRIS tumor inhibitor studies.

COc1ccc([C@@H]2CC(=O)c3c(O)cc(O[C@@H]4O[C@H](CO[C@@H]5O[C@@H](C)[C@H](O)[C@@H](O)[C@H]5O)[C@@H](O)[C@H](O)[C@H]4O)cc3O2)cc1O
tumour outcome (control, treated, inhibition, significance) (Carcinogen: 4-NITROQUINOLINE-1-OXIDE, 56-57-5, 500 PPM IN DIET FOR 10 WK BEGINNING 1 WK PRIOR TO CARCINOGEN TREATMENT (STUDY DURATION: 32 WK), Strain/Sex: F344/MALE, Target Tissue: Type of Lesion: TONGUE: CARCINOMA, Dose [Carcinogen]: 20 PPM IN DRINKING WATER FOR 8 WK, Promoter: NONE USED): 13/24 (54%), 4/18 (22%), 59%, p<0.05
tumour outcome (control, treated, inhibition, significance) (Carcinogen: 4-NITROQUINOLINE-1-OXIDE, 56-57-5, 500 PPM IN DIET FOR 10 WK BEGINNING 1 WK PRIOR TO CARCINOGEN TREATMENT (STUDY DURATION: 32 WK), Strain/Sex: F344/MALE, Target Tissue: Type of Lesion: TONGUE: PAPILLOMA, Dose [Carcinogen]: 20 PPM IN DRINKING WATER FOR 8 WK, Promoter: NONE USED): 4/24 (17%), 2/18 (11%), 35%, not significant
tumour outcome (control, treated, inhibition, significance) (Carcinogen: 4-NITROQUINOLINE-1-OXIDE, 56-57-5, 500 PPM IN DIET FOR 22 WK BEGINNING 1 WK POST CARCINOGEN TREATMENT (STUDY DURATION: 32 WK), Strain/Sex: F344/MALE, Target Tissue: Type of Lesion: TONGUE: CARCINOMA, Dose [Carcinogen]: 20 PPM IN DRINKING WATER FOR 8 WK, Promoter: NONE USED): 13/24 (54%), 8/19 (42%), 22%, not significant
tumour outcome (control, treated, inhibition, significance) (Carcinogen: 4-NITROQUINOLINE-1-OXIDE, 56-57-5, 500 PPM IN DIET FOR 22 WK BEGINNING 1 WK POST CARCINOGEN TREATMENT (STUDY DURATION: 32 WK), Strain/Sex: F344/MALE, Target Tissue: Type of Lesion: TONGUE: PAPILLOMA, Dose [Carcinogen]: 20 PPM IN DRINKING WATER FOR 8 WK, Promoter: NONE USED): 4/24 (17%), 1/19 (5%), 71%, not significant
tumour outcome (control, treated, inhibition, significance) (Carcinogen: 4-NITROQUINOLINE-1-OXIDE, 56-57-5, 1000 PPM IN DIET FOR 10 WK BEGINNING 1 WK PRIOR TO CARCINOGEN TREATMENT (STUDY DURATION: 32 WK), Strain/Sex: F344/MALE, Target Tissue: Type of Lesion: TONGUE: PAPILLOMA, Dose [Carcinogen]: 20 PPM IN DRINKING WATER FOR 8 WK, Promoter: NONE USED): 8/17 (47%), 1/19 (5%), 89%, p<0.01
tumour outcome (control, treated, inhibition, significance) (Carcinogen: 4-NITROQUINOLINE-1-OXIDE, 56-57-5, 1000 PPM IN DIET FOR 10 WK BEGINNING 1 WK PRIOR TO CARCINOGEN TREATMENT (STUDY DURATION: 32 WK), Strain/Sex: R344/MALE, Target Tissue: Type of Lesion: TONGUE: SQUAMOUS CELL CARCINOMA, Dose [Carcinogen]: 20 PPM IN DRINKING WATER FOR 8 WK, Promoter: NONE USED): 11/17 (65%), 3/19 (16%), 75%, p<0.005
tumour outcome (control, treated, inhibition, significance) (Carcinogen: 4-NITROQUINOLINE-1-OXIDE, 56-57-5, 1000 PPM IN DIET FOR 22 WK BEGINNING 1 WK POST CARCINOGEN TREATMENT (STUDY DURATION: 32 WK), Strain/Sex: F344/MALE, Target Tissue: Type of Lesion: TONGUE: PAPILLOMA, Dose [Carcinogen]: 20 PPM IN DRINKING WATER FOR 8 WK, Promoter: NONE USED): 8/17 (47%), 2/20 (10%), 79%, p<0.05
tumour outcome (control, treated, inhibition, significance) (Carcinogen: 4-NITROQUINOLINE-1-OXIDE, 56-57-5, 1000 PPM IN DIET FOR 22 WK BEGINNING 1 WK POST CARCINOGEN TREATMENT (STUDY DURATION: 32 WK), Strain/Sex: F344/MALE, Target Tissue: Type of Lesion: TONGUE: SQUAMOUS CELL CARCINOMA, Dose [Carcinogen]: 20 PPM IN DRINKING WATER FOR 8 WK, Promoter: NONE USED): 11/17 (65%), 5/20 (25%), 62%, p<0.05
tumour outcome (control, treated, inhibition, significance) (Carcinogen: AZOXYMETHANE, 25843-45-2, 0.1% IN DIET FOR 4 WK BEGINNING 1 WK PRIOR TO CARCINOGEN TREATMENT (STUDY DURATION: 32 WK), Strain/Sex: F344/MALE, Target Tissue: Type of Lesion: COLON: ADENOCARCINOMA, Dose [Carcinogen]: 15 MG/KG BW 1/WK FOR 3 WK, Promoter: NONE): 70%, 5%, 93%, p<0.001
tumour outcome (control, treated, inhibition, significance) (Carcinogen: AZOXYMETHANE, 25843-45-2, 0.1% IN DIET FOR 28 WK BEGINNING 1 WK POST LAST CARCINOGEN DOSE (STUDY DURATION: 32 WK), Strain/Sex: F344/MALE, Target Tissue: Type of Lesion: COLON: ADENOCARCINOMA, Dose [Carcinogen]: 15 MG/KG BW 1/WK FOR 3 WK, Promoter: NONE): 70%, 17%, 76%, p<0.005
tumour outcome (control, treated, inhibition, significance) (Carcinogen: AZOXYMETHANE, 25843-45-2, 1000 PPM IN DIET FOR 4 WK BEGINNING 1 WK PRIOR TO CARCINOGEN TREATMENT (STUDY DURATION: 32 WK), Strain/Sex: F344/MALE, Target Tissue: Type of Lesion: LARGE INTESTINE: TUMOR, Dose [Carcinogen]: 15 MG/KG BW 1/WK FOR 3 WK, Promoter: NONE USED): 12/17 (71%), 3/19 (16%), 77%, p<0.001
tumour outcome (control, treated, inhibition, significance) (Carcinogen: AZOXYMETHANE, 25843-45-2, 1000 PPM IN DIET FOR 4 WK BEGINNING 1 WK PRIOR TO CARCINOGEN TREATMENT (STUDY DURATION: 32 WK), Strain/Sex: F344/MALE, Target Tissue: Type of Lesion: SMALL INTESTINE: TUMOR, Dose [Carcinogen]: 15 MG/KG BW 1/WK FOR 3 WK, Promoter: NONE USED): 5/17 (29%), 1/19 (5%), 83%, not significant
tumour outcome (control, treated, inhibition, significance) (Carcinogen: AZOXYMETHANE, 25843-45-2, 1000 PPM IN DIET FOR 28 WK BEGINNING 1 WK POST CARCINOGEN TREATMENT (STUDY DURATION: 32 WK), Strain/Sex: F344/MALE, Target Tissue: Type of Lesion: LARGE INTESTINE: TUMOR, Dose [Carcinogen]: 15 MG/KG BW 1/WK FOR 3 WK, Promoter: NONE USED): 12/17 (71%), 3/20 (15%), 79%, p<0.001
